The test system of assay [1] is ANKO mice (adipose tissue-specific NAMPT knockout mice). The experiment in a line: NAD+ precursor rescue experiments in ANKO mice (Example 5). Format: in vivo, mouse. The text has this: To determine whether metabolic derangements depend on the defects in NAD+ biosynthesis in ANKO mice, we treated mice with NMN, a key NAD+ intermediate and the product of the NAMPT reaction (FIG. 6A). In the diagram, “NA” represents nicotinic acid, “NaMN” represents nicotinic acid mononucleotide, “NIC” represents nicotinamide, “NR” represents nicotinamide riboside, “Tip” represents tryptophan, and “NAPRT” represents nicotinate phosphoribosyl transferase. NMN is a product of an enzyme reaction mediated by NAMPT and is converted directly to NAD+. Nicotinic acid is a precursor in the NAPRT-dependent NAD+ biosynthesis pathway.
ANKO mice were generated by using adiponectin-Cre transgenic mice and floxed-Nampt mice as previously described (Noon et al., 2015). Mice were maintained on a standard chow diet (LabDiet 5053; LabDiet) ad libitum. For RSG rescue experiments, ANKO mice received a chow containing RSG (#71740; Cayman Chemical) at the approximate dose of 20 mg/kg body Weight/day soon after weaning for up to 7 weeks. For NAD+ precursor rescue experiments, we administered NMN (#44500900; Oriental Yeast) and NA (#72309; Sigma-Aldrich) in drinking water, at the approximate dose of 500 mg/kg of body weight, to ANKO mice soon after weaning for up to 2 months.
More specifically, drinking water containing NMN (500 mg/kg body weight/day) was administered to the female ANKO mice and metabolic parameters were investigated after administering NMN for 4 to 6 weeks. In the graphs, “NMN-ANKO” indicates the results for NMN-treated ANKO mice, “ANKO” indicates the results for NMN-untreated ANKO mice of the same age as the NMN-treated ANKO mice, and “flox/flox” indicates the results for the control mice (female Nampt-floxed (flox/flox) mice). All values in the graphs represent the mean ±SE. In the graphs, “*” indicates p<0.05, “**” indicates p<0.01, and “***” indicates p<0.001 (NMN-treated ANKO mice vs. NMN-untreated ANKO mice, Student's t-test). In addition, in the graphs, “a” indicates p<0.05 (NMN-treated ANKO mice vs. NMN-untreated ANKO mice, ANOVA), and “b” indicates p<0.05 (control mice vs. NMN-untreated ANKO mice, ANOVA).
FIG. 6B indicates the results of measuring […] levels in adipose tissue for female ANKO mice administered NMN for 4 to 6 weeks (500 mg/kg body weight day) and non-dosed female ANKO mice of the same age (per group, n=5 to 7). NAD+ levels were measured with an HPLC (high-performance liquid chromatography) system using a Supelco LC-18-T column (#58970-U, Sigma-Aldrich Corp.) (Yoon, et al., Cell Metabolism, 2015, Vol. 21, p. 706-717). FIG. 6C indicates the results of having carried out an insulin tolerance test (ITT), consisting of administering insulin and measuring blood glucose concentration over time, on NMN-treated mice following administration of NMN for 4 weeks (n=7) and non-dosed ANKO mice for which age has been aligned at 2 to 3 weeks (n=14), and control mice (n=8). The left graph in FIG. 6C indicates the results for changes in glucose concentration over time (insulin tolerance curve), while the graph on the right side of FIG. 6C indicates the results for the area under the curve (AUC) of glucose concentration.
The results for measuring plasma insulin concentrations for NMN-treated ANKO mice, NMN-untreated ANKO mice and control mice are shown in FIG. 6D, while the results of measuring plasma free fatty acid (FFA) concentrations are shown in FIG. 6E (per group, n=5 to 11). In addition, visceral adipose tissue was respectively sampled from NMN-treated ANKO mice and NMN-untreated ANKO mice followed by measurement of the levels of PPARγ (Ser273), CDK5 and nuclear protein acetylated lysine in the visceral adipose tissue (per group, n=3 to 4). […]

Assay [2] concerns adiponectin. The experiment in a line: Serum adiponectin levels in rats orally administered β-NMN (Example 1). Format: in vivo, rat. The following applies: CD rats, males and females, oral 250 and 1000 mg/kg/day, day 28. The method, then: (§1) A solution prepared by dissolving β-NMN (Oriental Yeast Co., Ltd.) in water for injection (Otsuka Pharmaceutical Co., Ltd.) or PBS (phosphate-buffered saline) was orally administered by gavage using a metal gastric tube (Fuchigami Kikai Co., Ltd.) attached to a polypropylene disposable syringe (Terumo Corp.).
(§2) Measurement of adiponectin levels in the following experiments was carried out in the manner indicated below.
(§3) Anti-mouse adiponectin polyclonal antibody (Oriental Yeast Co., Ltd.) was adjusted to 10 μg/mL with PBS for use as primary antibody solution. […]
(§4) Moreover, 100 μl of substrate solution (Becton Dickinson & Co., TMB Substrate Reagent Set, #555214) were added to each well, and the plate covered with sealing film was incubated for 15 minutes at 25° C. After stopping the reaction by adding 100 μL of 2 N sulfuric acid to each well, the absorbance of each well was measured at a primary wavelength of 450 nm and a secondary wavelength of 570 nm with a plate reader (FLOUstar Optima, BMG LabTech Ltd.). Furthermore, since the mouse adiponectin polyclonal antibody used in ELISA cross-reacts with rat adiponectin, levels of rat adiponectin were measured as mouse adiponectin by using standard mouse adiponectin. […]
Rat serum adiponectin levels were measured on day 28 from the start of administration.

Assay [3] concerns adiponectin. As to the kind of experiment: Serum adiponectin levels in mice orally administered β-NMN (Example 2). The following applies: C57BL/6N mice, females, oral 125 and 625 mg/kg/day, day 4. Format: in vivo, mouse. On the procedure: as §1, §2, §3, §4
(§5) Mouse serum adiponectin levels were measured on day 4 from the start of administration. […]

For assay [4], the system named is adiponectin. The experiment in a line: Serum adiponectin levels in mice intraperitoneally administered β-NMN (Example 3). Format: in vivo, mouse. The following applies: C57BL/6J mice, females, intraperitoneal 625 and 1250 mg/kg/day, day 4. The method, then: A solution prepared by dissolving β-NMN (Oriental Yeast Co., Ltd.) in PBS (phosphate-buffered saline) was administered intraperitoneally in accordance with the method of Dr. Sinclair (Gomes, et al., Cell, 2013, Vol. 155, p. 1624-1638) and the method of Dr. Imai (Yoshino, et al., Cell Metabolism, 2011, Vol. 14, p. 528-536).
as §2, §3, §4, §5

The subject of assay [5] is adipocytes differentiated from mouse fibroblast 3T3-L1 cells. As to the kind of experiment: Adiponectin secreted from adipocytes differentiated from 3T3-L1 cells stimulated with β-NMN (Example 4). Format: cell-based. Conditions: 3T3-L1 adipocytes cultured with β-NMN for 7 days vs without. On the procedure:
3T3-L1 cells were differentiated into adipocytes and then the cells were stimulated with β-NMN to measure the secreted amount of adiponectin. The 3T3-L1 cells were differentiated into adipocytes in the manner described below. First, 3T3-L1 cells were seeded in a 24-well plate at 5×10^4 cells/well followed by culturing for 2 to 3 days in culture medium (DMEM containing 10% fetal bovine serum (FBS)) at 37° C. in 5% CO2. Next, the culture medium was replaced with a first differentiation-inducing medium (containing 10 μM dexamethasone, 5 μM 3-isobutyl-1-methylxanthine (IBMX) and 10 μg/mL of insulin) followed by culturing for 2 days at 37° C. in 5% CO2. The medium was replaced with the second differentiation-inducing medium (containing 10 μg/mL of insulin) followed by culturing for 2 days at 37° C. in 5% CO2. Subsequently, the medium was twice replaced with culture medium every 2 to 3 days to differentiate the 3T3-L1 cells into mature adipocytes. 3T3-L1 adipocytes were cultured in the presence (“NMN addition”) or absence (“NMN non-addition”) of β-NMN for 7 days. The amount of adiponectin secreted into the culture supernatant was measured. The results of measurement of adiponectin levels in the culture supernatant are shown in. FIG. 4. […]

The mark [6] stands for this setting: ANKO mice, NMN 500 mg/kg body weight/day, 4 to 6 weeks.
Setting [7] is: NMN-treated vs untreated ANKO mice.
[8] abbreviates: visceral adipose tissue, NMN-treated vs untreated ANKO mice.

For `O=C(O)c1cccnc1` [nicotinic acid, reference compound], in assay [1] (nicotinic acid 500 mg/kg body weight/day, 5- to 7-week administration), the “metabolic disorders of ANKO mice” value is reported as “improved”.
For `NC(=O)c1ccc[n+]([C@@H]2O[C@H](COP(=O)([O-])O)C(O)[C@H]2O)c1` (stereo partly drawn) [β-NMN, Nicotinamide mononucleotide], the serum adiponectin levels result in the assay with adiponectin [2] is listed as “increased serum adiponectin levels dose-dependently”. Also, the serum adiponectin levels result in the assay with adiponectin [3] is listed as “increased serum adiponectin levels dose-dependently”. Besides, the serum adiponectin levels result in the assay with adiponectin [4] was “increased serum adiponectin levels dose-dependently”. Also, the “adiponectin levels in the culture supernatant” value in assay [5] was “higher”. Further, in assay [1] (ANKO mice, NMN 500 mg/kg body weight/day for 4 weeks, vs age-matched untreated ANKO mice), the “insulin sensitivity (insulin tolerance test)” value is reported as “improved”. In assay [1] (setting [6]), the “plasma FFA concentrations” value is on record as “normalized” and the plasma insulin concentrations result is “normalized”. Also, in assay [1] (setting [7]), the “plasma concentrations of adiponectin” value was “restored” and the “plasma concentrations of adipsin” value was “restored”. Besides, in assay [1] (female ANKO mice, NMN 500 mg/kg body weight/day in drinking water, 4 to 6 weeks), the “adipose tissue NAD+ concentrations” value is “significantly increased”. In addition, in assay [1] (setting [8]), the “Adipose tissue gene expression of adiponectin and adipsin” value is given as “restored”; the “global nuclear lysine acetylation” value is reported as “reduced”; the “phosphorylation of CDK5 in VAT” value is given as “decreased”; the “phosphorylation of PPARγ (Ser273) in VAT” value was “decreased”. Besides, the “metabolic disorders of ANKO mice” value in assay [1] (β-NMN 500 mg/kg body weight/day in drinking water, 4 to 6 weeks) is recorded as “improved”.

Source of the values: patent US10695360B2, “Adiponectin secretion enhancer” (WASHINGTON UNIVERSITY, priority 2017, dated 2020).
